Test results as given in PubChem BioAssay AID1259408 (Genetic Toxicology Data Bank (GENE-TOX), 2018).
Active and inactive are the calls of the source. The rule behind the calls is not given here.

Tested on: GENE-TOX genotoxicity assays, various organisms and cells
Experiment: GENE-TOX mutagenicity studies
Settings: for call: Assay Type: In vivo carcinogenicity studies
[1] = Species/Cell Type: Salmonella typhimurium (one or more of the five standard strains: TA98, TA100, TA1535, TA1537, and TA1538), Assay Type: Histidine reverse gene mutation, Ames assay, Assay Code: SALT, Evaluation Type: Evaluation A (Pre-1980)
[2] = Species/Cell Type: Salmonella typhimurium (one or more of the five standard strains: TA98, TA100, TA1535, TA1537, and TA1538), Assay Type: Histidine reverse gene mutation, Ames assay, Assay Code: SAL+*, Activation: With metabolic activation, Evaluation Type: Evaluation A (Pre-1980)
[3] = Species/Cell Type: Aspergillus nidulans, Assay Type: Aneuploidy, chromosome aberrations, Assay Code: ASN-, Evaluation Type: Evaluation A (Pre-1980)
[4] = Species/Cell Type: Nonhuman, Assay Code: CCGT, Evaluation Type: Evaluation A (Pre-1980)
[5] = Species/Cell Type: Nonhuman, Assay Type: Sister-chromatid exchange (SCE) in vivo, Assay Code: SC3T, Evaluation Type: Evaluation B (Post-1980)
[6] = Species/Cell Type: Saccharomyces cerevisiae, Assay Type: Mitotic recombination or gene conversion, Assay Code: YEH+, Evaluation Type: Evaluation A (Pre-1980)
[7] = Species/Cell Type: Saccharomyces cerevisiae, Assay Type: Reverse gene mutation, Assay Code: YER+, Evaluation Type: Evaluation A (Pre-1980)
[8] = Species/Cell Type: Fischer rat embryo (RLV/1706) cells, Assay Type: Cell transformation, viral enhanced, Assay Code: CTR+, Evaluation Type: Evaluation A (Pre-1980)
[9] = Species/Cell Type: Mouse, Sex: Male, Assay Type: Sperm morphology, Assay Code: SPI-, Evaluation Type: Evaluation A (Pre-1980)
[10] = Species/Cell Type: Salmonella typhimurium (one or more of the five standard strains: TA98, TA100, TA1535, TA1537, and TA1538), Assay Type: Histidine reverse gene mutation, Ames assay, Assay Code: SAL+, Evaluation Type: Evaluation A (Pre-1980)
[11] = Species/Cell Type: Mammalian polychromatic erythrocytes, Assay Type: Micronucleus test, chromosome aberrations, Assay Code: MNT+, Evaluation Type: Evaluation B (Post-1980)
[12] = Species/Cell Type: Allium cepa, Assay Type: Chromosome aberrations, Assay Code: ALC+D, Dose Response: With dose response, Evaluation Type: Evaluation A (Pre-1980)
[13] = Species/Cell Type: Nonhuman, Assay Code: CCG+L, Evaluation Type: Evaluation A (Pre-1980)
[14] = Species/Cell Type: Saccharomyces cerevisiae, Assay Type: Mitotic recombination or gene conversion, Assay Code: YEC+, Evaluation Type: Evaluation A (Pre-1980)

## [Cl][Th]([Cl])([Cl])[Cl]
Species/Cell Type: Bacillus subtilis (H17 vs M45), Assay Type: Rec-assay, spot test, DNA effects (bacterial DNA repair), Assay Code: REW-, Evaluation Type: Evaluation A (Pre-1980)
  mutagenic call: inactive; negative

## O=C(/C=C/c1ccc([N+](=O)[O-])o1)NC1CCCCC1
Species/Cell Type: Neurospora crassa, Assay Type: Forward gene mutation, Assay Code: NEF-, Evaluation Type: Evaluation A (Pre-1980)
  mutagenic call: inactive; negative

## c1ccc2c(c1)cc1ccc3cccc4c5ccccc5c2c1c34
Species/Cell Type: Nonhuman, Assay Code: CCG+, Evaluation Type: Evaluation A (Pre-1980)
  call: active; positive

## CCCCN(CCCC(=O)NCC(=O)O)N=O
[1]
  mutagenic call: no conclusion

## CC1=CCCc2c1cc(C)c1c2ccc2ccccc21
[2]
  mutagenic call: active; positive

## COc1c2occc2cc2ccc(=O)oc12
[3]
  mutagenic call: inactive; negative
Species/Cell Type: Aspergillus nidulans, Assay Type: Forward gene mutation, Assay Code: ASFT, Evaluation Type: Evaluation A (Pre-1980)
  mutagenic call: no conclusion
Species/Cell Type: Human lymphocytes, Assay Type: Sister-chromatid exchange (SCE) in vitro, Assay Code: SCL+, Evaluation Type: Evaluation B (Post-1980)
  mutagenic call: active; positive
Species/Cell Type: Human lymphocytes, Assay Type: Sister-chromatid exchange (SCE) in vitro, Assay Code: SCLT, Evaluation Type: Evaluation A (Pre-1980)
  mutagenic call: no conclusion
Species/Cell Type: Human, Assay Type: Sister-chromatid exchange (SCE) in vitro, Assay Code: SC1+, Evaluation Type: Evaluation B (Post-1980)
  mutagenic call: active; positive
Species/Cell Type: Human, Assay Type: Sister-chromatid exchange (SCE) in vitro, Assay Code: SC1T, Evaluation Type: Evaluation A (Pre-1980)
  mutagenic call: no conclusion
[4]
  call: no conclusion
Species/Cell Type: Nonhuman, Assay Type: Sister-chromatid exchange (SCE) in vitro, Assay Code: SC2T, Evaluation Type: Evaluation A (Pre-1980)
  mutagenic call: no conclusion
[5]
  mutagenic call: no conclusion
[6]
  mutagenic call: active; positive
[7]
  mutagenic call: active; positive
[1]
  mutagenic call: no conclusion

## COC(=O)[C@@]12Oc3ccc(-c4ccc5c(c4O)C(O)=C4C(=O)C[C@H](C)[C@@H](O)[C@]4(C(=O)OC)O5)c(O)c3C(O)=C1C(=O)C[C@H](C)[C@H]2O
[1]
  mutagenic call: no conclusion

## CC(Cl)(Cl)Cl
[8]
  mutagenic call: active; positive
Species/Cell Type: Mammalian polychromatic erythrocytes, Assay Type: Micronucleus test, chromosome aberrations, Assay Code: MNTT, Evaluation Type: Evaluation A (Pre-1980)
  mutagenic call: no conclusion
[9]
  mutagenic call: inactive; negative
[4]
  call: no conclusion
Species/Cell Type: Nonhuman, Assay Type: Sister-chromatid exchange (SCE) in vitro, Assay Code: SC2+, Evaluation Type: Evaluation B (Post-1980)
  mutagenic call: active; positive

## CNC(=O)Oc1cccc2c1OC(C)(C)O2
[3]
  mutagenic call: inactive; negative

## COc1c(Cl)ccc2oc3cc4c(c(OC)c3c(=O)c12)[C@@H]1C=CO[C@@H]1O4
[2]
  mutagenic call: active; positive

## BrCc1c2ccccc2cc2ccccc12
[10]
  mutagenic call: active; positive

## Clc1cccc(Cl)c1Cl
[11]
  mutagenic call: active; positive

## O=C(CCNNC(=O)c1ccncc1)NCc1ccccc1
Species/Cell Type: Nonhuman, Assay Type: Sister-chromatid exchange (SCE) in vivo, Assay Code: SC3+, Evaluation Type: Evaluation B (Post-1980)
  mutagenic call: active; positive
[10]
  mutagenic call: active; positive

## ClC1C(Cl)C(Cl)C(Cl)C(Cl)C1Cl (stereo not given)
[12]
  mutagenic call: active; positive
Species/Cell Type: Drosophila melanogaster, Assay Type: Sex-linked recessive lethal gene mutation, Assay Code: SRLT, Evaluation Type: Evaluation A (Pre-1980)
  mutagenic call: no conclusion
Species/Cell Type: Hordeum vulgare (barley), Assay Type: Chromosome aberrations, Assay Code: HOC+D, Dose Response: With dose response, Evaluation Type: Evaluation A (Pre-1980)
  mutagenic call: active; positive
[13]
  call: active; positive
[14]
  mutagenic call: active; positive
Species/Cell Type: Saccharomyces cerevisiae, Assay Type: Reverse gene mutation, Assay Code: YER-*, Activation: With metabolic activation, Evaluation Type: Evaluation A (Pre-1980)
  mutagenic call: inactive; negative
Species/Cell Type: Salmonella typhimurium, Serratia marcesens, Assay Type: Forward and reverse gene mutation, host-mediated assay, Assay Code: HM2T, Evaluation Type: Evaluation A (Pre-1980)
  mutagenic call: no conclusion
Species/Cell Type: Tradescantia species, Assay Type: Chromosome aberrations, Assay Code: TRC+D, Dose Response: With dose response, Evaluation Type: Evaluation A (Pre-1980)
  mutagenic call: active; positive
Species/Cell Type: Vicia faba, Assay Type: Chromosome aberrations, Assay Code: VIC+D, Dose Response: With dose response, Evaluation Type: Evaluation A (Pre-1980)
  mutagenic call: active; positive

## C=Cc1ccccc1C
Species/Cell Type: Human lymphocytes, Assay Type: Sister-chromatid exchange (SCE) in vitro, Assay Code: SCL+D, Dose Response: With dose response, Evaluation Type: Evaluation B (Post-1980)
  mutagenic call: active; positive
Species/Cell Type: Human, Assay Type: Sister-chromatid exchange (SCE) in vitro, Assay Code: SC1+D, Dose Response: With dose response, Evaluation Type: Evaluation B (Post-1980)
  mutagenic call: active; positive

## ClC(Cl)C(Cl)Cl
Species/Cell Type: Escherichia coli polA (W3119 vs P3478), Assay Type: Rec-assay, DNA effects (bacterial DNA repair), Assay Code: RE1+, Evaluation Type: Evaluation A (Pre-1980)
  mutagenic call: active; positive
[13]
  call: active; positive
[14]
  mutagenic call: active; positive
[6]
  mutagenic call: active; positive
[7]
  mutagenic call: active; positive

## [O]=[W](=[O])([OH])[OH]
Species/Cell Type: Human lymphocytes, Assay Type: Sister-chromatid exchange (SCE) in vitro, Assay Code: SCLT, Evaluation Type: Evaluation B (Post-1980)
  mutagenic call: no conclusion
Species/Cell Type: Human, Assay Type: Sister-chromatid exchange (SCE) in vitro, Assay Code: SC1T, Evaluation Type: Evaluation B (Post-1980)
  mutagenic call: no conclusion

## Cc1ccc(S(=O)(=O)NC(=O)NN2CCCCCC2)cc1
[5]
  mutagenic call: no conclusion

## Nc1ccccc1N
Species/Cell Type: Allium cepa, Assay Type: Chromosome aberrations, Assay Code: ALC+, Evaluation Type: Evaluation A (Pre-1980)
  mutagenic call: active; positive
[11]
  mutagenic call: active; positive
Species/Cell Type: Neurospora crassa, Assay Type: Aneuploidy, chromosome aberrations, Assay Code: NEN-, Evaluation Type: Evaluation A (Pre-1980)
  mutagenic call: inactive; negative
Species/Cell Type: Rodents, Sex: Male, Assay Type: Dominant lethal test, Assay Code: DLT-, Evaluation Type: Evaluation A (Pre-1980)
  mutagenic call: inactive; negative

## O=P(O)(O)CCCl
[12]
  mutagenic call: active; positive

## CC1CN(N=O)CC(C)N1C(=O)c1ccccc1 (stereo not given)
[1]
  mutagenic call: no conclusion

## CC(C)Nc1cccc2c1C(=O)c1ccccc1C2=O
[2]
  mutagenic call: active; positive

## CC1(C)O[C@@H]2C[C@H]3[C@@H]4C[C@H](F)C5=CC(=O)C=C[C@]5(C)[C@@]4(F)[C@@H](O)C[C@]3(C)[C@]2(C(=O)CO)O1
Species/Cell Type: Syrian hamster embryo (SA7/SHE) cells, Assay Type: Cell transformation, viral enhanced, Assay Code: CT7+, Evaluation Type: Evaluation A (Pre-1980)
  mutagenic call: active; positive

## N#Cc1ccc(N)cc1
[9]
  mutagenic call: inactive; negative

## O=C1c2cccc(O)c2C(=O)c2c(O[C@@H]3O[C@H](CO)[C@@H](O)[C@H](O)[C@H]3O)cccc21
[2]
  mutagenic call: active; positive

## CC(=O)Nc1ccc2c(ccc3ccccc32)c1
Species/Cell Type: Human diploid fibroblasts, Assay Type: Unscheduled DNA synthesis (UDS) in vitro, DNA effects, Assay Code: UDH-, Evaluation Type: Evaluation A (Pre-1980)
  mutagenic call: inactive; negative
[13]
  call: active; positive

## [2H]O[2H]
Species/Cell Type: Drosophila melanogaster, Sex: Male, Assay Type: Heritable translocation test, chromosome aberrations, Assay Code: DHTT, Evaluation Type: Evaluation A (Pre-1980)
  mutagenic call: no conclusion

## [N-]=[N+]=O
Species/Cell Type: Chinese hamster lung (V79) cells, Assay Type: Forward gene mutation at the HPRT or ouabain locus, Assay Code: V79+, Evaluation Type: Evaluation A (Pre-1980)
  mutagenic call: active; positive
[9]
  mutagenic call: inactive; negative
[4]
  call: no conclusion
Species/Cell Type: Nonhuman, Assay Type: Sister-chromatid exchange (SCE) in vitro, Assay Code: SC2T, Evaluation Type: Evaluation B (Post-1980)
  mutagenic call: no conclusion
Species/Cell Type: Tradescantia species, Assay Type: Gene mutation, Assay Code: TRM+D, Dose Response: With dose response, Evaluation Type: Evaluation A (Pre-1980)
  mutagenic call: active; positive

## CN(C)c1ccc(N=Nc2ccc3ncccc3c2)cc1
[8]
  mutagenic call: active; positive
Species/Cell Type: Mouse embryo (AKR/ME) cells, Assay Type: Cell transformation, Assay Code: CTK+, Evaluation Type: Evaluation A (Pre-1980)
  mutagenic call: active; positive

## COc1ccc2c3c(cccc13)C(=O)c1ccccc1-2
[2]
  mutagenic call: active; positive

## O=C1c2ccccc2C(=O)C1c1ccc2cc(S(=O)(=O)O)cc(S(=O)(=O)O)c2n1
Species/Cell Type: Bacillus subtilis (H17 vs M45), Assay Type: Rec-assay, spot test, DNA effects (bacterial DNA repair), Assay Code: REWT, Evaluation Type: Evaluation A (Pre-1980)
  mutagenic call: no conclusion
